In ChEMBL document CHEMBL3785005, “Novel triazole hybrids of myrrhanone C, a natural polypodane triterpene: Synthesis, cytotoxic activity and cell based studies” (Eur J Med Chem, 2016):
Activity calls are given as the source filed them. The calls are words filed in the database; no cut-off is given here.

Columns and labels:
A549 [1] = test: Induction of apoptosis in human A549 cells assessed as nuclear fragmentation at 5 to 10 uM after 48 hrs by Hoechst 33258 staining based fluorescence microscopic analysis; assay type: functional, cell-based
MCF7 = test: Cytotoxicity against human MCF7 cells assessed as cell viability after 48 hrs by MTT assay; assay type: functional, cell-based; conditions: MCF7, 48 h
A549 [2] = test: Induction of apoptosis in human A549 cells assessed as cytoplasmic condensation at 5 to 10 uM after 48 hrs by Hoechst 33258 staining based fluorescence microscopic analysis; assay type: functional, cell-based
HeLa = test: Cytotoxicity against human HeLa cells assessed as cell viability after 48 hrs by MTT assay; assay type: functional, cell-based
[3] = Cytotoxicity against human DU145 cells assessed as cell viability after 48 hrs by MTT assay; assay type: functional, cell-based; conditions: DU-145, 48 h
A549 [4] = test: Cell cycle arrest in human A549 cells assessed as accumulation at G2/M phase at 5 uM after 48 hrs by propidium iodide staining based flow cytometry (reference value: 14.07%); assay type: functional
A549 [5] = test: Induction of apoptosis in human A549 cells assessed as mitochondrial membrane potential at 10 uM after 48 hrs by JC-1 staining based flow cytometry (reference value: 92.5%); assay type: functional
A549 [6] = test: Induction of apoptosis in human A549 cells assessed as viable cells at 5 uM after 48 hrs by Annexin V-FITC/propidium iodide staining based flow cytometry (reference value: 87.93%); assay type: functional; conditions: A549, 48 h, read-out: Activity
A549 [7] = test: Cell cycle arrest in human A549 cells assessed as accumulation at S phase at 5 uM after 48 hrs by propidium iodide staining based flow cytometry (reference value: 3.51%); assay type: functional
A549 [8] = test: Induction of apoptosis in human A549 cells assessed as presence of apoptotic bodies at 5 to 10 uM after 48 hrs by Hoechst 33258 staining based fluorescence microscopic analysis; assay type: functional, cell-based
A549 [9] = test: Induction of apoptosis in human A549 cells assessed as late apoptotic cells at 10 uM after 48 hrs by Annexin V-FITC/propidium iodide staining based flow cytometry (reference value: 5.19%); assay type: functional
A549 [10] = test: Cell cycle arrest in human A549 cells assessed as accumulation at sub G1 phase at 10 uM after 48 hrs by propidium iodide staining based flow cytometry (reference value: 0.76%); assay type: functional
A549 [11] = test: Induction of apoptosis in human A549 cells assessed as mitochondrial membrane potential at 5 uM after 48 hrs by JC-1 staining based flow cytometry (reference value: 92.5%); assay type: functional
A549 [12] = test: Induction of apoptosis in human A549 cells assessed as viable cells at 10 uM after 48 hrs by Annexin V-FITC/propidium iodide staining based flow cytometry (reference value: 87.93%); assay type: functional; conditions: A549, 48 h, read-out: Activity
A549 [13] = test: Cell cycle arrest in human A549 cells assessed as accumulation at sub G1 phase at 5 uM after 48 hrs by propidium iodide staining based flow cytometry (reference value: 0.76%); assay type: functional
A549 [14] = test: Induction of apoptosis in human A549 cells assessed as early apoptotic cells at 10 uM after 48 hrs by Annexin V-FITC/propidium iodide staining based flow cytometry (reference value: 5.19%); assay type: functional
A549 [15] = test: Cytotoxicity against human A549 cells assessed as cell viability after 48 hrs by MTT assay; assay type: functional, cell-based; conditions: A549, 48 h
A549 [16] = test: Cell cycle arrest in human A549 cells assessed as accumulation at S phase at 10 uM after 48 hrs by propidium iodide staining based flow cytometry (reference value: 3.51%); assay type: functional
A549 [17] = test: Induction of apoptosis in human A549 cells assessed as necrotic cells at 10 uM after 48 hrs by Annexin V-FITC/propidium iodide staining based flow cytometry (reference value: 1.68%); assay type: functional
A549 [18] = test: Induction of apoptosis in human A549 cells assessed as late apoptotic cells at 5 uM after 48 hrs by Annexin V-FITC/propidium iodide staining based flow cytometry (reference value: 5.19%); assay type: functional
HepG2 = test: Cytotoxicity against human HepG2 cells assessed as cell viability after 48 hrs by MTT assay; assay type: functional, cell-based; conditions: HepG2, 48 h
A549 [19] = test: Cell cycle arrest in human A549 cells assessed as accumulation at G0/G1 phase at 5 uM after 48 hrs by propidium iodide staining based flow cytometry (reference value: 80.19%); assay type: functional
A549 [20] = test: Induction of apoptosis in human A549 cells assessed as necrotic cells at 5 uM after 48 hrs by Annexin V-FITC/propidium iodide staining based flow cytometry (reference value: 1.68%); assay type: functional
A549 [21] = test: Cell cycle arrest in human A549 cells assessed as accumulation at G2/M phase at 10 uM after 48 hrs by propidium iodide staining based flow cytometry (reference value: 14.07%); assay type: functional
A549 [22] = test: Induction of apoptosis in human A549 cells assessed as early apoptotic cells at 5 uM after 48 hrs by Annexin V-FITC/propidium iodide staining based flow cytometry (reference value: 5.19%); assay type: functional
A549 [23] = test: Cell cycle arrest in human A549 cells assessed as accumulation at G0/G1 phase at 10 uM after 48 hrs by propidium iodide staining based flow cytometry (reference value: 80.19%); assay type: functional

Row | Compound | Activity (A549 [1]) | IC50 (MCF7) [µM] | Activity (A549 [2]) | IC50 (HeLa) [µM] | IC50 [3] [µM] | Activity (A549 [4]) [%] | Activity (A549 [5]) [%] | viability at 5 µM (A549 [6]) [%] | Activity (A549 [7]) [%] | Activity (A549 [8]) | Activity (A549 [9]) [%] | Activity (A549 [10]) [%] | Activity (A549 [11]) [%] | viability at 10 µM (A549 [12]) [%] | Activity (A549 [13]) [%] | Activity (A549 [14]) [%] | IC50 (A549 [15]) [µM] | Activity (A549 [16]) [%] | Activity (A549 [17]) [%] | Activity (A549 [18]) [%] | other results
1 | CC(C)=CCC/C(C)=C/CC/C(C)=C/CC[C@@H]1[C@@]2(C)CC/C(=N\OCc3cn(-c4ccccc4)nn3)C(C)(C)[C@@H]2CC[C@@]1(C)O | Active | 9.59 | Active | 7.76 | 8.83 | 20 | 83.5 | 84.4 | 2.86 | Active | 16.28 | 1.02 | 88.1 | 76.9 | 0.9 | 5.4 | 6.16 | 0.34 | 1.43 | 9.59 | IC50 (HepG2): 9.52 µM; Activity (A549 [19]): 75.14%; Activity (A549 [20]): 0.81%; Activity (A549 [21]): 36.97%; Activity (A549 [22]): 5.23%; Activity (A549 [23]): 60.11%
2 | COc1cc(OC)c(-n2cc(CO/N=C3\CC[C@]4(C)[C@@H](CC/C=C(\C)CC/C=C(\C)CCC=C(C)C)[C@](C)(O)CC[C@H]4C3(C)C)nn2)c(OC)c1 | Active | 14.7 | Active | 12.8 | 11.1 | 18.52 | 84.1 | 86 | 3 | Active | 15.83 | 1.14 | 88.7 | 77.4 | 0.73 | 5 | 8.12 | 0.36 | 1.8 | 8.56 | IC50 (HepG2): 14.1 µM; Activity (A549 [19]): 76.47%; Activity (A549 [20]): 1.3%; Activity (A549 [21]): 31.32%; Activity (A549 [22]): 4.18%; Activity (A549 [23]): 65.77%
